Source: paper PMC3648463, “Common Interactions between S100A4 and S100A9 Defined by a Novel Chemical Probe” (PLoS ONE, 2013)

How the values were obtained:
S100A4 = target: T1, S100A4 (Homo sapiens, UniProt P26447); test: SPR direct binding to amine-coupled S100A4; SPR inhibition of S100A4 binding to immobilized RAGE (IC50 […], Figure 5C)
T1 construct: human S100A4 (R&D Systems)

S100A9 = target: T2, S100A9 (Homo sapiens, UniProt P06702); test: SPR direct binding to amine-coupled S100A9; SPR inhibition of S100A9 binding to immobilized RAGE (IC50 […]) and TLR4 ([…])
T2 construct: recombinant human S100A9 (produced in E. coli)
T2 sequence (P06702 1-114): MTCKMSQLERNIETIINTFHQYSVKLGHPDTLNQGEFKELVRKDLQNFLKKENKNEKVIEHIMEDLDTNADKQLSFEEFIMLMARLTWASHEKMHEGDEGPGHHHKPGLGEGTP

T1 sequence (P26447 2-101): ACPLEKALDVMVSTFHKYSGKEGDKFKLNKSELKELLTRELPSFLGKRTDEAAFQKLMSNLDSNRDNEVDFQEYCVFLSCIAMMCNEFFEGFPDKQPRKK

Work on `O=C(Nc1cc(Cl)cc(Cl)c1O)c1c(O)c(Cl)cc(Cl)c1Cl` [OX, Oxyclozanide] yielded an IC50 (S100A4) of 52 µM and an IC50 (S100A9) of about 1.3 µM.
